Experimental data: PMC5955586, “Transport of enniatin B and enniatin B1 across the blood-brain barrier and hints for neurotoxic effects in cerebral cells” (PLoS ONE, 2018)
pIC50: −log10 of the molar value.

How the values were obtained:
CCF-STTG1 cells = assay: CCK-8 viability assay in CCF-STTG1; type: cell-based, human; conditions: for concentration with highly significant cytotoxic effects / pIC50: CCF-STTG1, 48 h; for pIC50: Homo sapiens, CCK-8, read-out: IC50 (cellular viability)
Method: (§1) To test the viability and to define the working range for later transport studies ENN B/ENN B1 stock solutions in ACN were diluted to the respective concentrations with serum free culture medium (1% ACN). An astrocytoma cell line, CCF-STTG1 (ATCC, Manassas, USA), and HBMEC cell line (human brain microvascular endothelial cells, kindly provided by Prof. Dr. Karch, Institute of Hygiene, University of Muenster (WWU Muenster)) were cultivated in RPMI 1640 medium supplemented with 100 U/mL penicillin, 100 μg/mL streptomycin, 2 mM L-glutamine and 10% (v/v) fetal calf serum (FCS) (medium for HBMEC additionally supplemented with 1 mM Na-pyruvate) using standardized culture conditions (37°C, 5% CO2, saturated humidified atmosphere). Culture medium was changed every 2–3 d, and the cells were subcultivated after trypsination when they reached a microscopic confluence of approximately 80%. For the evaluation of cytotoxic effects of ENN B and B1 in CCF-STTG1 and HBMEC, Cell Counting Kit-8 (CCK-8, Dojindo Laboratories, Tokyo Japan) was applied. The assay was performed according to the manufacturer’s instructions with slight modifications.
Briefly, the cells were seeded in 96-well tissue culture plates in a density of 1 × 10^4 cells/well (CCF-STTG1) and 4 × 10^3 cells/well (HBMEC), respectively. The cells were allowed to grow for 24 h, then the culture medium was replaced by serum free medium (100 μL/well), and the cells were cultivated for another 24 h (37°C, 5% CO2, saturated humidified atmosphere) before treatment. The cells were treated with ENN B and ENN B1 in a concentration range from 0.1 μM to 10 μM and were incubated for 48 h. After toxin exposure, the toxin solution was exchanged with a dye solution WST-8 (CCK-8 solution, water soluble tetrazolium salt-8, 2-(2-methoxy-4-nitrophenyl)-3-)4-nitrophenyl)-5-(2,4-disulfophenyl)-2H-tetrazolium monosodium salt), 1:10 diluted with fresh serum free medium, which was added to the cells followed by incubation for 60 min at 37°C. WST-8 dye is reduced to a water-soluble formazan by cellular dehydrogenases of viable cells, which increases the absorbance at λ = 457 nm and was measured with an Infinite M200 PRO microplate reader with Tecan i-control software version 1.7.1.12 (Tecan, Crailsheim, Germany). The amount of formazan generated by the activity of dehydrogenases in cells is directly proportional to the number of viable cells per well. The results are normalized to a solvent treated negative control (1% ACN).

HBMEC = assay: CCK-8 viability assay in HBMEC; type: cell-based, human; conditions: 0.1 μM to 10 μM, 48 h
Method: as §1, with “For the evaluation of cytotoxic effects of ENN B and B1 in CCF-STTG1 and HBMEC, Cell Counting Kit-8 (CCK-8, Dojindo Laboratories, Tokyo Japan) was applied. The assay was performed according to the manufacturer’s instructions with slight modifications.” left out
Briefly, the cells were seeded in 96-well tissue culture plates in a density of 1 × 10^4 cells/well (CCF-STTG1) and 4 × 10^3 cells/well (HBMEC), respectively. […] WST-8 dye is reduced to a water-soluble formazan by cellular dehydrogenases of viable cells, which increases the absorbance at λ = 457 nm and was measured with an Infinite M200 PRO microplate reader with Tecan i-control software version 1.7.1.12 (Tecan, Crailsheim, Germany). […]

PBCEC [1] = assay: CCK-8 viability assay in PBCEC; type: cell-based, porcine; conditions: 48 h; for cytotoxic effects: 1 μM
Method: Primary porcine brain capillary endothelial cells (PBCEC) were kindly provided by the group of Prof. Dr. Langer, Institute of Pharmaceutical Technology, WWU Münster. Cellular viability was tested after treatment for 48 h using the CCK-8 assay, like applied for the cell lines but with minor modifications. Based on earlier protocols for the cultivation of PBCEC, the cryopreserved PBCEC were thawed at 37°C in a water bath, gently resuspended in culture medium (Medium 199 Earle’s with 100 U/mL penicillin, 100 μg/mL streptomycin, 100 μg/mL gentamycin, 4.1 mM L-glutamine and 10% fetal calf serum) and centrifugated at 220 × g at 20°C for 10 min. After removal of the supernatant, fresh complete medium was added and the cell pellet was resuspended twice and diluted to desired cell density. The cells were seeded on rat tail collagen coated 96-well tissue culture plates with 100 μL of the cell suspension per well. PBCEC were allowed to grow for 48 h at 37°C, 5% CO2 under saturated humidified conditions. Complete medium was exchanged for serum free medium (DMEM/Ham’s F-12 1:1 with 100 U/mL penicillin, 100 μg/mL streptomycin, 100 μg/mL gentamycin, 0.7 mM L-glutamine and 550 nM hydrocortisone (Sigma-Aldrich, Steinheim, Germany)). On day 5 in culture (96 h after seeding) half of the medium (50 μL) was removed and exchanged with 50 μL double concentrated ENN solution to reach the desired final concentrations in a concentration range from 0.1 μM to 10 μM. The cells were treated with the test substances in concentrations from 0.1 to 10 μM for 48 h. Due to the sensitivity of the primary cells, after completion of 48 h, the incubation medium was not exchanged but each well was supplemented with 10 μL of the CCK-8 solution and incubated for 70 min at 37°C, 5% CO2 in a saturated humidified atmosphere. Then the absorbance of the generated formazan dye was measured at 457 nm with 650 nm as reference wavelength. After subtracting the reference absorption as well as a blank absorption without cells, the viabilities were normalized to a solvent treated negative control (1% ACN).

PBCEC [2] = assay: Barrier integrity of PBCEC (TEER and capacitance CCl); type: cell-based, porcine; conditions: for barrier impairing effect: 200 nM; for effect on TEER value / effect on monolayer confluency (capacitance CCl): 1 μM, 48 h
Method: Before starting each experiment, the TEER values and the electrical capacitance of all cell layers were measured via cellular impedance spectroscopy (cellZscope®, nanoAnalytics, Münster, Germany). […] TEER values relate to the constitution of the tight junctions limiting paracellular transfer of compounds. In addition to the TEER, electrical capacitances (CCl) were monitored for 48 h. Cellular phospholipid bilayers act like an electrical capacitor and also contribute to the cellular impedance. Changes of the CCl value give information about the integrity of the cell monolayer. In this experiment, a parallel set up was applied. For each treatment, one triplicate of filters was monitored via cellular impedance spectroscopy over the course of 48 h using a cellZscope® device–here, the basolateral compartment was prepared with 1650 μL serum free medium and the volume in the apical compartment was filled to 760 μL (ratio 1:2.17). Another triplicate for the same incubation conditions was kept in Transwell® filter cell culture multiple well plates (12 well format) over the course of 48 h. In the multiple well plates the ratio between the apical and the basolateral compartment was 1:3, therefore the starting volume in the apical compartment is 500 μL and 1500 μL in the basolateral compartment. Here, samples for quantitation of transfer of enniatins across the barrier were drawn after 1, 2.5, 6.5, 18, 24, 28, 42 and 48 hours in this given ratio i.e. 30 μL apical and 90 μL basolateral. After 48 h, the final TEER values of the filters from the multiple well plate were measured to ensure the stability of the cell layer throughout the experiment. To double check the integrity of the barrier, lucifer yellow (LY, 50 μM), as a paracellular transfer marker, was applied. The amount of LY found in the basolateral compartment after 1 h was measured at λex = 430 nm and λ em = 540 nm.

Caco-2 = conditions: cited from earlier work; for absorption: Caco-2, 4 h exposure; for duodenal bioavailability in vitro: Caco-2 model, 48 h
MRC-5 cells = system: MRC-5 cells; design: method as in PMID 16730043; conditions: MRC-5, 24 h, Alamar Blue; cited from earlier work

Row | Compound | effect on viability (CCF-STTG1 cells; CCF-STTG1, 0.1 μM and 1 μM, 48 h) | concentration with highly significant cytotoxic effects (CCF-STTG1 cells) [nM] | pIC50 (CCF-STTG1 cells) | effect on viability compared to solvent control (HBMEC) | cytotoxic effects (PBCEC [1]) | concentration with highly significant cytotoxicity (PBCEC [1]) | barrier impairing effect (PBCEC [2]) | effect on TEER value (PBCEC [2]) | effect on monolayer confluency (capacitance CCl) (PBCEC [2]) | absorption (Caco-2) [%] | duodenal bioavailability in vitro (Caco-2) [%] | pIC50 (MRC-5 cells)
1 | CC[C@H](C)[C@H]1C(=O)O[C@H](C(C)C)C(=O)N(C)[C@@H](C(C)C)C(=O)O[C@H](C(C)C)C(=O)N(C)[C@@H](C(C)C)C(=O)O[C@H](C(C)C)C(=O)N1C [ENN B1, enniatin B1] | weak but significant effects | ≥ 2500 | 5.36 | no effect on viability | did not show any cytotoxic effects | ≥ 2500 nM | did not have any barrier impairing effect | does not lead to a breakdown of the TEER value | does not impair PBCEC confluency | > 65 | > 50 | 5.33
2 | CC(C)[C@H]1C(=O)O[C@H](C(C)C)C(=O)N(C)[C@@H](C(C)C)C(=O)O[C@H](C(C)C)C(=O)N(C)[C@@H](C(C)C)C(=O)O[C@H](C(C)C)C(=O)N1C [ENN B, enniatin B] | – | ≥ 5000 | 5.05 | no effect on viability | did not show any cytotoxic effects | above 5 μM | did not have any barrier impairing effect | does not lead to a breakdown of the TEER value | does not impair PBCEC confluency | > 65 | > 50 | 5.01
